Source: US10166229B2, “Compounds and methods for the treatment of cancer” (The Board of Trustees of the University of Illinois, priority 2005, dated 2019)
“Also recorded” adds a separate entry of the source.

Tests used:
procaspase-3 mutant DDA = procaspase-3 mutant DDA (Homo sapiens, UniProt P42574, D181A); experiment: Activation of safety catch mutant procaspase-3 (DDA); type: biochemical
Description: Safety catch mutations. The DDD procaspase-3 safety catch (SEQ ID NO:1; SEQ ID NO:2; SEQ ID NO:9) was mutated to ADD (SEQ ID NO:3, SEQ ID NO:4, SEQ ID NO:10), DAD (SEQ ID NO:5, SEQ ID NO:6, SEQ ID NO:11) and DDA (SEQ ID NO:7, SEQ ID NO:8, SEQ ID NO:12) using the quickchange strategy with the following primers, gacagacagtggtgttgCGgatgacatggcgtgtcataaaatacc (SEQ ID NO:13), gacagacagtggtgttgatgCtgacatggcgtgtcataaaatacc (SEQ ID NO:14) and gacagacagtggtgttgatgatgCcatggcgtgtcataaaatacc (SEQ ID NO:15) respectively. See also FIG. 9 and FIG. 10. Mutated bases are underlined and capitalized. All mutant plasmids were sequenced to ensure proper sequence throughout the gene. All mutant plasm ids were expressed exactly as wild-type procaspase-3 as described above. […] The plate was then incubated for 12 hours at 37° C. 10 μL of a 2 mM solution of Ac-DEVD-pNA (SEQ ID NO: 28) in caspase assay buffer was then added to each well. The plate was read every 2 minutes at 405 nm for 2 hours in a Spectra Max Plus 384 well plate reader. The slope of the linear portion for each well was determined and the fold increase in activity for each mutant was calculated.

[1] = test system: NCI-H226 (lung cancer) xenograft; experiment: NCI-H226 xenograft, intraperitoneal PAC-1; type: in vivo, mice; settings: i.p. 10 mg/kg
Procedure: A xenograft model was employed using NCI-H226 (lung cancer) cells. […] A comparison of efficacy was performed with gefitinib (Iressa™; AstraZeneca, Wilmington, Del.) at 40 mg/kg using 5 mice per group.

procaspase-3 = procaspase-3 (Homo sapiens (Human), UniProt P42574); experiment: Western blot of in vitro procaspase-3 activation by DX compounds; type: biochemical; settings: 50 micromolar compound, about 35 nanomolar procaspase-3, 8 hr
procaspase-3, sequence (P42574 whole entry): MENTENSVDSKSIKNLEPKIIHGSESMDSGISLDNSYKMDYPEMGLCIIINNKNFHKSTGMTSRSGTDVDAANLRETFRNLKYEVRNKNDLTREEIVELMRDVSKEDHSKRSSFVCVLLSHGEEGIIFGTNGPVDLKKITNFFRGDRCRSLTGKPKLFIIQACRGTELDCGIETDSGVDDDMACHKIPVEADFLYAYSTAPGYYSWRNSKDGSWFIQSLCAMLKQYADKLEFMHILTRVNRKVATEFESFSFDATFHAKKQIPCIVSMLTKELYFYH
Procedure: Certain compounds were also tested for the ability to effect in vitro activation of procaspase-3.

procaspase-7 = procaspase-7 (Homo sapiens (Human), UniProt P55210); settings: read-out: EC50 for activation of procaspase-7
procaspase-7, sequence (P55210 whole entry): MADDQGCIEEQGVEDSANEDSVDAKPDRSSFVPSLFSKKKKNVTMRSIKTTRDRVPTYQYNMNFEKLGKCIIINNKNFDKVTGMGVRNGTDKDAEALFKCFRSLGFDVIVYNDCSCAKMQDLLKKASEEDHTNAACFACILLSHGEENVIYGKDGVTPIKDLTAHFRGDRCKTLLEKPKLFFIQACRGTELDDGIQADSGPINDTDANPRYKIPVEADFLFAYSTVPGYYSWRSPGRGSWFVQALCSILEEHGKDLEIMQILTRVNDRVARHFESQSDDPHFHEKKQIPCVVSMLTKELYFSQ

[2] = Plasma PAC-1 content after pellet implantation; type: in vivo, mice; settings: female, athymic BALB/c (nude), mouse, other: implantation of a pellet of PAC-1 and cholesterol, 5 mg pellet, after the 54 day experiment
Procedure: PAC-1 was evaluated in a mouse xenograft model using a slow release mode of drug delivery. In this model, subcutaneous tumors were formed in ovariectomized female athymic BALB/c (nude) mice using the ACHN (renal cancer) cell line. […] Tumor sizes were monitored for about 8 weeks. […] After the mice were sacrificed, plasma samples were taken from each mouse, and the PAC-1 content of each was analyzed.

[3] = test system: caspase-3 like activity in HL-60 cells; experiment: Caspase-3 like activity in HL-60 cells; type: cell-based, human; settings: HL-60, 100 μM PAC-1
Procedure: In vivo determination of caspase-3 like activity. The amount of caspase-3 like protease activity was determined by the amount of Ac-DEVD-pNA (N-acetyl-ASP-Glu-Val-Asp-p-nitroanilide) (SEQ ID NO: 28) cleaved per minute by cell lysates. […] 50 μL of HL-60 cells at a concentration of 5×10^6 cells/mL were added to the plate and incubated for various times. After the incubation period, the plate was spun at 1000×g for 5 minutes to pellet the cells. The cells were then washed with 100 μL of PBS and resuspended in 150 μL of ice cold Caspase Assay Buffer. Each well was then sonicated to lyse the cells. 90 μL of cell lysate was transferred from each well into a new plate. Ac-DEVD-pNA (SEQ ID NO: 28) was added into each well to give a final concentration of 200 μM. […] The slope of the linear portion for each well was determined and the amount of Ac-DEVD-pNA (SEQ ID NO: 28) cleaved per minute was calculated.

PARP-1 = PARP-1 (Homo sapiens (Human), UniProt P09874); experiment: Control experiment: direct inhibition of PARP-1 enzymatic activity; type: biochemical; settings: control experiments
PARP-1, sequence (P09874 whole entry, species assumed): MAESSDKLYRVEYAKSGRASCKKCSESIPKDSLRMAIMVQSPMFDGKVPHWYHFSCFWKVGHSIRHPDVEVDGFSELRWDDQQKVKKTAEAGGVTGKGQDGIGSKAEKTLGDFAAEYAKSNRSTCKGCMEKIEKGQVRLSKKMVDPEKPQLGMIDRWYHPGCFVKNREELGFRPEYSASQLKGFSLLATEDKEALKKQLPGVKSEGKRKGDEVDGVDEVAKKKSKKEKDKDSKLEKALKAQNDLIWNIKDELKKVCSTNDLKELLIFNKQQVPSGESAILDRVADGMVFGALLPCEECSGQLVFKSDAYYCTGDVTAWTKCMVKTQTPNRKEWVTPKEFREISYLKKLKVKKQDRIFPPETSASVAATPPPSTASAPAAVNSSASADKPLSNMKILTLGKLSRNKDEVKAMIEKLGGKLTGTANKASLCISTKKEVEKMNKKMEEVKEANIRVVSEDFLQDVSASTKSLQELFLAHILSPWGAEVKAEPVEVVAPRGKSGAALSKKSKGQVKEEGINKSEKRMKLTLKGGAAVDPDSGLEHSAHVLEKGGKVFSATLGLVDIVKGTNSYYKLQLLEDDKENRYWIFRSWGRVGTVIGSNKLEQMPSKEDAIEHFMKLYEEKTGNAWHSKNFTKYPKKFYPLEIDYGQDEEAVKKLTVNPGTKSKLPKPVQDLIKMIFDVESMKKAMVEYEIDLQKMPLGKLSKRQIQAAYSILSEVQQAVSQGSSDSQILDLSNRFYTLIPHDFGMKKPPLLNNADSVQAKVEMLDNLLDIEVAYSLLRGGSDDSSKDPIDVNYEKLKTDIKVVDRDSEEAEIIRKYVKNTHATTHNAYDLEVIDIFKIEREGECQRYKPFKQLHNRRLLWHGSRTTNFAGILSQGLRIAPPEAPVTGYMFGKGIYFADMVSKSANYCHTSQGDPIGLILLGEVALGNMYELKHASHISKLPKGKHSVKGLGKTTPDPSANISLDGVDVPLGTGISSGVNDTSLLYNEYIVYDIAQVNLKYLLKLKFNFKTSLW

active caspase-3 = active caspase-3 (Homo sapiens (Human), UniProt P42574); experiment: Effect on fully processed caspase-3 enzyme; type: biochemical
active caspase-3, sequence (P42574 29-175): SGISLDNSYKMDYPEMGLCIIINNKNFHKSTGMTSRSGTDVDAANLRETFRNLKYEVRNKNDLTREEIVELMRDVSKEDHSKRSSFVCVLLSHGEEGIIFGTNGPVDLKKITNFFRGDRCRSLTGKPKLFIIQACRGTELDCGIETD
active caspase-3, sequence (P42574 176-277): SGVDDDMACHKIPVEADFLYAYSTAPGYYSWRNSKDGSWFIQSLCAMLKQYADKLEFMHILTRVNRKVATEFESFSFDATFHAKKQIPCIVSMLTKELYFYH
Procedure: Activation curves. The dose dependence of procaspase-3 activators was determined by adding various concentrations of compound to 90 μL of a 50 ng/mL procaspase-3, active caspase-3, procaspase-7 or active caspase-7 in caspase assay buffer in a 96-well plate. The plate was then incubated for 12 hours at 37° C. 10 μL of a 2 mM solution of Ac-DEVD-pNA (SEQ ID NO: 28) in caspase assay buffer was then added to each well. The plate was read every 2 minutes at 405 nm for 2 hours in a Spectra Max Plus 384 well plate reader. The slope of the linear portion for each well was determined and the fold increase in activation from non-treated control wells was calculated.

HL-60 cells = experiment: Condensed chromatin staining (Hoechst); type: cell-based, human; settings: HL-60, 20 h, 100 μM
Procedure: The cells were then washed in PBS buffer followed by the addition of ice-cold 100% ethanol. The cells were fixed overnight at 4° C. Fixed cells were incubated with 2 μg/mL Hoechst-33258 for 30 minutes at room temperature. A drop of cells was then added to a microscope slide and covered with a No. 1 thickness coverslip.

[4] = test system: cellular PARP activity in HL-60 cells; experiment: In vivo PARP activity assay (PARP cleavage) in HL-60; type: cell-based, human; settings: HL-60, 100 μM PAC-1
Procedure: In vivo determination of PARP cleavage. The amount of PARP cleavage was determined by using an in vivo PARP activity assay. To accomplish this, 50 μL of media containing 200 μM NAD^+ was added to the control wells of a 96-well plate. […] 25 μL of HL-60 cells at a concentration of 5×10^6 cells/mL were then added to each well. The cells were incubated for various times and then spun at 1000×g for 5 minutes. The cell media was removed and replaced with 50 μL Lysing PARP Buffer (50 mM Tris, 10 mM MgCl2, pH 8.0, 1% Triton X-100) containing 25 mM H2O2. The plate was then incubated for 60 minutes at 37° C. To determine the amount of NAD^+ still present, 20 μL of 2 M KOH and 20 μL of a 20% (v/v) acetophenone (in ethanol) solution was added to each well of the 96-well plate. The plate was then incubated for 10 minutes at 4° C. 90 μL of an 88% (v/v) formic acid solution was added to each well of the 96-well plate. […] The plate was allowed to cool and then read on a Criterion Analyst AD (Molecular Devices, Sunnyvale, Calif.) with an excitation of 360 nm, an emission of 445 nm and a 400 nm cutoff dichroic mirror. The fluorophore was excited using a 1000 W continuous lamp for 1.6×10^5 μs with 5 reads performed per well. The number of moles of NAD^+ cleaved per minute was then calculated and the remaining PARP activity as compared to control wells was determined.

procaspase-3 mutant DDA, sequence (P42574 29-175 limits assumed): as the sequence (P42574 29-175) above
procaspase-3 mutant DDA, sequence (P42574 176-277 D181A limits assumed): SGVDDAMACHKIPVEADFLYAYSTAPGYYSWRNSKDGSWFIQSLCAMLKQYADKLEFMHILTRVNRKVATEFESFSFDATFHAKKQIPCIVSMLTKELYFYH

SMILES: C=CCc1cccc(/C=N/NC(=O)CN2CCN(Cc3ccccc3)CC2)c1O [PAC-1]
- EC50 (procaspase-3 mutant DDA): 113 µM
- growth in tumor volume, NCI-H226 xenograft [1]: associated with reducing growth in tumor volume
- in vitro activation of procaspase-3 (Western blot) relative to control (procaspase-3): substantial activity levels
- EC50 (procaspase-7): 4.5 µM
- concentration at 54 day [2]: 5 nM
- time to 50% activation of caspase-3-like activity [3]: over 2 hours
- direct inhibition of enzymatic activity of PARP-1 (PARP-1): does not directly inhibit
- effect on catalytic activity of fully processed caspase-3 enzyme (active caspase-3): no effect
- chromatin condensation (HL-60 cells): significant chromatin condensation
- cellular PARP activity / PARP-1 cleavage [4]: rapidly reduced; also recorded: induces cleavage of the caspase substrate PARP-1; also recorded: rapid decrease
